Strand notation (5' to 3'): a small letter for the sugar, then the base; units joined by * are phosphorothioate-linked, units joined directly phosphodiester-linked; [ ] holds rarer units or linkages, { } end groups; capitals alone tell only the bases. k = constrained ethyl (cEt); [5mC] = 5-methylcytosine; d = 2'-deoxy (DNA)
System: Yap1 mRNA
Experiment: Antisense inhibition of human Yap1 in A-431 cells by cEt gapmers, single dose (Example 3, RTS36584)
Assay type: cell-based
Conditions: Table 8; A-431 cells, 5,000 cells per well, free uptake, 2,000 nM, approximately 48 hours; RTS36584; normalized to RIBOGREEN; Yap1 mRNA relative to untreated control cells
Summary of the method: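 Free uptake, 2,000 nM, ~48 h, A-431 cells. Gapmers: 16-mer 3-10-3 cEt wings, PS backbone, 5-MeC. Readout qRT-PCR, RiboGreen-normalized, % UTC.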

Substance	YAP1 (% UTC)
958383 (antisense k[5mC]*kT*kT*d[5mC]*d[5mC]*dT*d[5mC]*dT*dG*d[5mC]*dG*d[5mC]*dG*k[5mC]*k[5mC]*k[5mC]) [Compound 958383]	96
958404 (antisense kG*k[5mC]*kA*d[5mC]*dA*d[5mC]*dA*dA*d[5mC]*dT*d[5mC]*dA*dG*kA*k[5mC]*kA) [Compound 958404]	52
958382 (antisense kT*kT*k[5mC]*d[5mC]*dT*d[5mC]*dT*dG*d[5mC]*dG*d[5mC]*dG*d[5mC]*k[5mC]*k[5mC]*kG) [Compound 958382]	111

Same assay, conditions: Table 9; A-431 cells, 5,000 cells per well, free uptake, 2,000 nM, approximately 48 hours; RTS36584; normalized to RIBOGREEN; Yap1 mRNA relative to untreated control cells

Substance	YAP1 (% UTC)
958506 (kG*k[5mC]*kA*dG*dA*dT*dA*dA*dT*d[5mC]*dG*dA*dG*kA*kT*kT; antisense) [Compound 958506]	6
958521 (kT*kT*k[5mC]*d[5mC]*dA*dA*dT*dT*d[5mC]*dA*dT*d[5mC]*dA*kG*kA*kT; antisense) [Compound 958521]	14
958496 (k[5mC]*k[5mC]*kT*dT*dA*dT*dA*dA*dG*d[5mC]*dT*d[5mC]*d[5mC]*kT*kA*kA; antisense) [Compound 958496]	3
958726 (antisense k[5mC]*kT*kG*dT*d[5mC]*dA*dG*dT*dT*dA*dT*d[5mC]*d[5mC]*kT*kA*kT) [Compound 958726]	3

Same assay, conditions: Table 10; A-431 cells, 5,000 cells per well, free uptake, 2,000 nM oligonucleotide, approx. 48 hours; primer probe set RTS36584; Yap1 mRNA normalized to RIBOGREEN, percent of untreated control

Substance	YAP1 (% UTC)
958732 (antisense kA*kG*k[5mC]*dA*d[5mC]*dG*dG*dT*dG*dT*dA*dG*d[5mC]*kT*kT*kT) [Compound 958732]	60
958812 (kT*kA*k[5mC]*dT*dA*dT*dA*dA*dG*dA*d[5mC]*dA*d[5mC]*k[5mC]*kA*kA; antisense) [Compound 958812]	31

Same assay, conditions: Table 11; A-431 cells, 5,000 cells per well, free uptake, 2,000 nM oligonucleotide, approx. 48 hours; primer probe set RTS36584; Yap1 mRNA normalized to RIBOGREEN, percent of untreated control

Substance	YAP1 (% UTC)
958603 (kT*kG*kG*dT*dA*dT*dG*dA*dA*dT*dT*d[5mC]*dT*kG*kA*kA; antisense) [Compound 958603]	3

Same assay, conditions: Table 12; A-431 cells, 5,000 cells per well, free uptake, 2,000 nM modified oligonucleotide, approx. 48 hours; RTS36584; normalized to RIBOGREEN; Yap1 mRNA relative to untreated control cells

Substance	YAP1 (% UTC)
958714 (antisense kG*kA*kG*d[5mC]*dA*d[5mC]*dT*dG*d[5mC]*dG*d[5mC]*d[5mC]*d[5mC]*kT*kG*kG) [Compound 958714]	82
958804 (antisense kA*kG*kA*dT*dA*dA*dT*d[5mC]*dA*dT*d[5mC]*d[5mC]*dT*k[5mC]*kA*kG) [Compound 958804]	17
958789 (antisense kT*kA*k[5mC]*dT*dA*dT*dA*dT*dA*dA*dT*dA*d[5mC]*k[5mC]*k[5mC]*kT) [Compound 958789]	17
958674 (kA*kA*kG*dA*dA*d[5mC]*dT*dT*dA*dG*dT*dT*d[5mC]*k[5mC]*k[5mC]*kT; antisense) [Compound 958674]	25
958484 (antisense kG*k[5mC]*kA*dG*d[5mC]*dA*dA*dT*dG*dG*dA*d[5mC]*dA*kA*kG*kG) [Compound 958484]	2
958539 (kT*k[5mC]*kT*dA*dT*d[5mC]*d[5mC]*dA*dG*dG*dG*dT*d[5mC]*kA*kA*kT; antisense) [Compound 958539]	11
958534 (kT*kT*k[5mC]*dA*dG*d[5mC]*dA*dT*dA*dG*dA*dA*dG*kT*kA*kG; antisense) [Compound 958534]	3
958609 (antisense kT*kG*kA*d[5mC]*dA*dA*dG*dT*dG*dT*dG*d[5mC]*dA*kT*kT*kA) [Compound 958609]	16
958774 (antisense kT*kG*k[5mC]*dT*dA*dG*dA*dT*dA*dT*d[5mC]*dG*d[5mC]*k[5mC]*kA*kA) [Compound 958774]	33

Same assay, conditions: Table 13; A-431 cells, 5,000 cells per well, free uptake, 2,000 nM modified oligonucleotide, approx. 48 hours; RTS36584; normalized to RIBOGREEN; Yap1 mRNA relative to untreated control cells

Substance	YAP1 (% UTC)
958640 (antisense kT*kA*kG*dA*dT*dA*dA*d[5mC]*dT*dG*dT*d[5mC]*dT*k[5mC]*k[5mC]*k[5mC]) [Compound 958640]	13
958510 (kT*kA*k[5mC]*d[5mC]*dA*d[5mC]*dA*d[5mC]*dT*dA*dT*dT*dA*kT*kA*kA; antisense) [Compound 958510]	43
958530 (kG*kA*kG*d[5mC]*dA*dA*dG*dT*d[5mC]*dT*dT*dG*dT*kA*kA*kG; antisense) [Compound 958530]	20
958700 (antisense k[5mC]*kT*kA*dA*dT*dA*dT*dA*dG*dA*d[5mC]*dT*dA*k[5mC]*kT*k[5mC]) [Compound 958700]	55
958720 (antisense kG*kT*k[5mC]*dT*dA*d[5mC]*dT*dA*dG*dA*dG*d[5mC]*dT*kG*k[5mC]*k[5mC]) [Compound 958720]	12

Same assay, conditions: Table 27; Yap1 mRNA by 3-10-3 cEt gapmers targeting SEQ ID NO.: 1, and 2; percent of untreated control

Substance	YAP1 (% UTC)
1076493 (kT*kG*kA*d[5mC]*dA*dA*dT*dA*dA*dG*dG*dG*dA*k[5mC]*kA*kA; antisense) [compound 1076493]	34
1075021 (antisense kT*kT*kA*d[5mC]*dA*dA*d[5mC]*d[5mC]*dT*dA*dG*dA*dT*kT*kT*kG) [compound 1075021]	68
1076301 (kG*kT*kA*dT*dA*dA*dG*dA*d[5mC]*d[5mC]*dT*dT*dG*kG*kG*kA; antisense) [compound 1076301]	34
1075565 (kT*kA*kT*dA*dT*dA*dA*d[5mC]*dA*dG*dG*d[5mC]*d[5mC]*kA*k[5mC]*k[5mC]; antisense) [compound 1075565]	52

Same assay, conditions: Table 28; Yap1 mRNA as percent of untreated control; 3-10-3 cEt gapmers targeting SEQ ID NO.: 1, and 2

Substance	YAP1 (% UTC)
1075406 (antisense kA*k[5mC]*kT*dA*dT*dA*dT*dA*dA*d[5mC]*d[5mC]*dT*dG*kA*kA*k[5mC]) [compound 1075406]	99
1075502 (k[5mC]*kT*kT*dA*dA*d[5mC]*dA*dT*dG*dA*dT*dT*d[5mC]*kT*kA*kG; antisense) [compound 1075502]	61
1075822 (k[5mC]*kT*kT*dA*dG*dT*dA*dA*dT*dT*dG*d[5mC]*d[5mC]*k[5mC]*kA*kT; antisense) [compound 1075822]	35
1075758 (kG*kT*kA*dA*dT*dT*dT*dA*dA*dT*dA*dG*dA*k[5mC]*kT*kA; antisense) [compound 1075758]	73
1074894 (antisense kT*kG*k[5mC]*dT*dG*dA*dA*dG*dT*dT*dT*dA*dG*k[5mC]*k[5mC]*kT) [compound 1074894]	79
1075982 (k[5mC]*kA*kT*dG*dA*dA*dA*dG*d[5mC]*dA*dA*dT*dA*kT*k[5mC]*k[5mC]; antisense) [compound 1075982]	23
1075054 (antisense k[5mC]*kA*kA*dT*dA*dT*dA*dT*dA*d[5mC]*dT*dT*dG*kA*kT*k[5mC]) [compound 1075054]	48
1076558 (kG*k[5mC]*k[5mC]*dA*dA*dA*dT*dA*dT*dT*dT*dA*dA*k[5mC]*kT*k[5mC]; antisense) [compound 1076558]	30

Same assay, conditions: Table 29; Yap1 mRNA as percent of untreated control; 3-10-3 cEt gapmers targeting SEQ ID NO.: 1, and 2

Substance	YAP1 (% UTC)
1074767 (kT*kT*kA*dT*d[5mC]*d[5mC]*d[5mC]*dA*dA*dT*dG*d[5mC]*dT*kA*k[5mC]*k[5mC]; antisense) [compound 1074767]	12
1074511 (kG*kA*kT*dA*d[5mC]*dA*dT*dT*d[5mC]*d[5mC]*dA*d[5mC]*dT*kA*k[5mC]*k[5mC]; antisense) [compound 1074511]	9

Same assay, conditions: Table 34; Yap1 mRNA as percent of untreated control; 3-10-3 cEt gapmers targeting SEQ ID NO: 1 and 2; single dose

Substance	YAP1 (% UTC)
1075604 (antisense kA*kT*kA*dA*dT*dT*dA*dA*dG*d[5mC]*dT*dA*dT*k[5mC]*kA*k[5mC]) [compound 1075604]	81
1075860 (antisense kA*kA*k[5mC]*dT*dA*dT*dA*dA*dG*d[5mC]*dT*dA*dT*kG*kT*kG) [compound 1075860]	73
1074612 (DNA kA*kT*kA*dG*d[5mC]*dT*dT*dA*dT*dA*dT*dT*dG*kA*kA*kG; further chemistry not given here) [compound 1074612]	12
1074804 (kT*kA*kG*d[5mC]*dA*dA*dA*dG*dT*d[5mC]*dA*d[5mC]*dT*kT*k[5mC]*k[5mC]; antisense) [compound 1074804]	15

Same assay, conditions: Table 35; Yap1 mRNA as percent of untreated control; 3-10-3 cEt gapmers targeting SEQ ID NO: 1 and 2; single dose

Substance	YAP1 (% UTC)
1074645 (antisense kA*kA*kT*dT*dG*dA*dA*dG*dG*dG*d[5mC]*d[5mC]*dA*kA*kA*kA) [compound 1074645]	81
1075605 (antisense k[5mC]*kG*kT*dA*dA*dA*d[5mC]*dA*dT*dT*dT*dT*dG*k[5mC]*k[5mC]*kT) [compound 1075605]	38
1075989 (kG*k[5mC]*kT*dA*dA*dA*dA*dT*dT*dA*dA*dG*d[5mC]*kT*kT*k[5mC]; antisense) [compound 1075989]	78
1076501 (k[5mC]*kA*kT*dA*dA*d[5mC]*dA*d[5mC]*dT*dT*dA*dA*dG*kG*kT*kG; antisense) [compound 1076501]	97

From patent US11214803B2, “Modulators of YAP1 expression” (Ionis Pharmaceuticals, Inc., priority 2019, dated 2022)
